Data published in article PMC7151106 (Pharmaceutics, 2020).

Experiments:
SGLT2 = molecular target: T1, SGLT2 (Homo sapiens, UniProt P31639); assay: Inhibition of [14C]AMG uptake in CHO-SGLT2 cells; assay type: cell-based; conditions: for IC50: 10 μM [14C]AMG uptake, 2 h, CHO-SGLT2 minus mock, mean ± SD, triplicate
T1 construct: host or cells: CHO
T1 sequence (P31639 1-672): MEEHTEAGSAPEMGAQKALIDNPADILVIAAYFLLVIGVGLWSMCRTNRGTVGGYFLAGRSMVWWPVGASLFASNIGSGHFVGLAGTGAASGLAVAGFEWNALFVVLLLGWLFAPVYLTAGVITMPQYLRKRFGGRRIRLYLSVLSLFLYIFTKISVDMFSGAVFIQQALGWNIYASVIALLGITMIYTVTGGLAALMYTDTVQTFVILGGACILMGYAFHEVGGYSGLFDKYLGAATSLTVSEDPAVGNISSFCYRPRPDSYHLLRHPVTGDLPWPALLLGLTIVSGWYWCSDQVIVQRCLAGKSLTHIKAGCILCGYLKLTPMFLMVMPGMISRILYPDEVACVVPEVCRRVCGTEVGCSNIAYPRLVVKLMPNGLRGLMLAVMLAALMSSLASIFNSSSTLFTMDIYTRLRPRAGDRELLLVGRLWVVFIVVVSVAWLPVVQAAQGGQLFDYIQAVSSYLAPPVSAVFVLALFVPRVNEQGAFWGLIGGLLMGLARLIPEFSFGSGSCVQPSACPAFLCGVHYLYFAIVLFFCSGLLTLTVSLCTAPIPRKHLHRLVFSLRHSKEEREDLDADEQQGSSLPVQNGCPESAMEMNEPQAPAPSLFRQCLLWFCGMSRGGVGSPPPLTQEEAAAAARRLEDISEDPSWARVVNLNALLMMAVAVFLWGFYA
Description: (§1) CHO cells overexpressing SGLT1 and SGLT2 cells (CHO-SGLT1 and -SGLT2) and CHO-mock cells were characterized as previously described. Cells were maintained in RPMI1640 medium supplemented with 10% fetal bovine serum and 200 µg/mL G418 at 37 °C in 5% CO2 conditions. CHO-SGLT1 and -SGLT2 cells were seeded at a density of 1 × 10^5 cells/well in 96-well plates. After 24 h, the growth medium was discarded from the cells, and the cells were washed with pre-warmed Na^+-free buffer (10 mM HEPES, 5 mM Tris, 140 mM choline chloride, 2 mM KCl, 1 mM CaCl2, 1 mM MgCl2, pH7.4) and incubated for 1 h in Na^+-free buffer. After replacing Na^+-free buffer with Na^+ gradient buffer (10 mM HEPES, 5 mM Tris, 140 mM NaCl, 2 mM KCl, 1 mM CaCl2, 1 mM MgCl2, pH7.4) containing 10 µM [^14C]AMG, the uptake of [^14C]AMG into the CHO-mock cells and CHO-SGLT1 and -SLGT2 cells was measured for 0.5, 1, 1.5, 2, and 3 h. After a predetermined incubation time, cells were washed three times with 200 µL of ice-cold Na^+-free buffer immediately after placing the plates on ice. Then, the cells were lysed with 10% SDS, and the cell lysates were mixed with Optiphase cocktail solution. Thereafter, the radioactivity of the cell lysates was measured using a liquid scintillation counter.
(§2) After 2 h, cells were washed three times with 200 µL of ice-cold Na^+-free buffer and the cells were lysed with 10% SDS (40 µL), followed by adding Optiphase cocktail solution (200 µL). The radioactivity of the cell lysates was measured using a liquid scintillation counter. The SGLT1 or SGLT2-mediated uptake of [^14C]AMG was calculated by the subtraction of the uptake rates of [^14C]AMG into the mock cells from those of the CHO-SGLT1 and -SLGT2 cells. In the inhibition studies, the percentages of the transport rate of AMG with or without SGLT2 inhibitors were calculated and the data were fitted to an inhibitory effect model. The IC50 (the concentration of the inhibitor to show half-maximal inhibition) values were calculated using Sigma Plot ver.10.0 (Systat Software, Inc.; San Jose, CA, USA).

SGLT1 = molecular target: T2, SGLT1 (Homo sapiens, UniProt P13866); assay: Inhibition of [14C]AMG uptake in CHO-SGLT1 cells; assay type: cell-based; conditions: 10 μM [14C]AMG uptake, 2 h, CHO-SGLT1 minus mock; mean ± SD, triplicate
T2 construct: host or cells: CHO
T2 sequence (P13866 1-664): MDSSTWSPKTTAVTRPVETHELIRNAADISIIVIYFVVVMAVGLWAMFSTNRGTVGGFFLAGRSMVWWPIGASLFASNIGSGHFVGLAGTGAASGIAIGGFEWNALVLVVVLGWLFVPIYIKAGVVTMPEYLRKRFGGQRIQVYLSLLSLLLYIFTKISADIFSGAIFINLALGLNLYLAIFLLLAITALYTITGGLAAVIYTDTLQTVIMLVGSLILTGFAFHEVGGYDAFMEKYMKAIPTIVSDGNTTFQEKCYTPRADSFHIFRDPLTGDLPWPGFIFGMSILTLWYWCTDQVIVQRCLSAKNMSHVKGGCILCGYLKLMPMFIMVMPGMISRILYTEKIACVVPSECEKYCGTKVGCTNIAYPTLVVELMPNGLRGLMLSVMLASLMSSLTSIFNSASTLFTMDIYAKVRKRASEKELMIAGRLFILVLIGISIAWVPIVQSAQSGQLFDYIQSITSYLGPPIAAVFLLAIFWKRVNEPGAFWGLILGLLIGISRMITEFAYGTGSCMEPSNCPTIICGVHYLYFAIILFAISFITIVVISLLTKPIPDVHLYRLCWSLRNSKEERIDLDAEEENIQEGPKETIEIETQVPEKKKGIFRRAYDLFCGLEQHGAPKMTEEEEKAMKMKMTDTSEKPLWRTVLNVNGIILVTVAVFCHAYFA
Description: as §1, §2

**Q.** OC[C@H]1O[C@@H](c2cc(Cc3ccc(C4CC4)cc3)c(Cl)c3c2CCO3)[C@H](O)[C@@H](O)[C@@H]1O [DWP16001] was tested. Which “Selectivity (IC50 Ratio of SGLT1/SGLT2)” value (SGLT2) did it give?
**A.** 667

**Q.** What about the IC50 (SGLT2) of the same compound?
**A.** 0.8 ± 0.3 nM

**Q.** And the IC50 (SGLT1)?
**A.** 549 ± 140 nM

**Q.** Which “Selectivity (IC50 Ratio of SGLT1/SGLT2)” value (SGLT2) does the source give for OC[C@H]1O[C@@H](c2ccc(F)c(Cc3cc4ccccc4s3)c2)[C@H](O)[C@@H](O)[C@@H]1O [Ipragliflozin, ipragliflozin] here?
**A.** 261

**Q.** What about the IC50 (SGLT2) of the same compound?
**A.** 8.9 ± 1.7 nM

**Q.** And the IC50 (SGLT1)?
**A.** 2330 ± 378 nM
